Measurements taken from patent US10844077B2, “Thiazolyl-containing compounds for treating proliferative diseases” (Dana-Farber Cancer Institute, Inc., priority 2014, dated 2020).
Read-outs that look alike come from different tables or passages of the source.

Assays:
Type in all cases: cell-based
kinases in BCWM.1 cells [1] = target: kinases in BCWM.1 cells (Homo sapiens, UniProt Q9H2G2); details: SLK; Lys2; 1 μM, 90 min; GF
Procedure: (§1) The cells were harvested and lysed. […] Bound kinases were identified and quantitated by ACTIVX as described in Patricelli et al., Biochemistry, 2007, 46(2): 350-358. The compounds were tested in duplicates against duplicate or quadruplicate control samples.

kinases in BCWM.1 cells [2] = target: kinases in BCWM.1 cells (Homo sapiens, UniProt P51812); details: Lys2, 1 μM, 90 min, GF
Procedure: as §1

kinases in BCWM.1 cells [3] = target: kinases in BCWM.1 cells (Homo sapiens, UniProt P21127); details: PITSLRE; Lys2; 1 μM, 90 min; GF
Procedure: as §1

kinases in BCWM.1 cells [4] = target: kinases in BCWM.1 cells (Homo sapiens, UniProt Q7RTN6); details: STLK5; Activation Loop; 1 μM, 90 min; GF
Procedure: as §1

kinases in BCWM.1 cells [5] = target: kinases in BCWM.1 cells (Homo sapiens, UniProt Q9NZJ5); details: PEK; Lys2; 1 μM, 90 min; GF
Procedure: as §1

kinases in BCWM.1 cells [6] = target: kinases in BCWM.1 cells (Homo sapiens, UniProt P42338); details: PIK3CB; ATP; 1 μM, 90 min; GF
Procedure: as §1

kinases in BCWM.1 cells [7] = target: kinases in BCWM.1 cells (Homo sapiens, UniProt Q96BR1); details: SGK3; Lys1; 1 μM, 90 min; GF
Procedure: as §1

kinases in BCWM.1 cells [8] = target: kinases in BCWM.1 cells (Homo sapiens, UniProt Q13464); details: ROCK1; Protein Kinase Domain; 1 μM, 90 min; GF
Procedure: as §1

kinases in BCWM.1 cells [9] = target: kinases in BCWM.1 cells (Homo sapiens, UniProt O15530); details: PDK1; Lys1; 1 μM, 90 min; GF
Procedure: as §1

kinases in BCWM.1 cells [10] = target: kinases in BCWM.1 cells (Homo sapiens, UniProt Q96Q15); details: SMG1; ATP; 1 μM, 90 min; GF
Procedure: as §1

kinases in BCWM.1 cells [11] = target: kinases in BCWM.1 cells (Homo sapiens, UniProt Q15349); details: RSK3 domain1; Lys2; 1 μM, 90 min; GF
Procedure: as §1

kinases in BCWM.1 cells [12] = target: kinases in BCWM.1 cells (Homo sapiens, UniProt P30291); details: Wee1; Lys2; 1 μM, 90 min; GF
Procedure: as §1

kinases in BCWM.1 cells [13] = target: kinases in BCWM.1 cells (Homo sapiens, UniProt Q9UBF8); details: PI4KB; ATP; 1 μM, 90 min; GF
Procedure: as §1

kinases in BCWM.1 cells [14] = target: kinases in BCWM.1 cells (Homo sapiens, UniProt Q9Y572); details: RIPK3; Lys2; 1 μM, 90 min; GF
Procedure: as §1

kinases in BCWM.1 cells [15] = target: kinases in BCWM.1 cells (Homo sapiens, UniProt Q96S44); details: PRPK; ATP Loop; 1 μM, 90 min; GF
Procedure: as §1

kinases in BCWM.1 cells [16] = target: kinases in BCWM.1 cells (Homo sapiens, UniProt Q9BZL6); details: PKD2; Lys1; 1 μM, 90 min; GF
Procedure: as §1

kinases in BCWM.1 cells [17] = target: kinases in BCWM.1 cells (Homo sapiens, UniProt P51955); details: NEK2; Lys2; 1 μM, 90 min; GF
Procedure: as §1

kinases in BCWM.1 cells [18] = target: kinases in BCWM.1 cells (Homo sapiens, UniProt O94921)
Procedure: as §1

kinases in BCWM.1 cells [19] = target: kinases in BCWM.1 cells (Homo sapiens, UniProt P12931); details: SRC; Lys1; 1 μM, 90 min; GF
Procedure: as §1

kinases in BCWM.1 cells [20] = target: kinases in BCWM.1 cells (Homo sapiens, UniProt P53350); details: PLK1; Lys1; 1 μM, 90 min; GF
Procedure: as §1

kinases in BCWM.1 cells [21] = target: kinases in BCWM.1 cells (Homo sapiens, UniProt P43405); details: SYK; Activation Loop; 1 μM, 90 min; GF
Procedure: as §1

kinases in BCWM.1 cells [22] = target: kinases in BCWM.1 cells (Homo sapiens, UniProt Q96SB4); details: SRPK1; Lys2; 1 μM, 90 min; GF
Procedure: as §1

kinases in BCWM.1 cells [23] = target: kinases in BCWM.1 cells (Homo sapiens, UniProt Q15208); details: NDR1; Lys2; 1 μM, 90 min; GF
Procedure: as §1

kinases in BCWM.1 cells [24] = target: kinases in BCWM.1 cells (Homo sapiens, UniProt Q9Y2I7); details: PIP5K3; ATP; 1 μM, 90 min; GF
Procedure: as §1

kinases in BCWM.1 cells [25] = target: kinases in BCWM.1 cells (Homo sapiens, UniProt Q9UKI8); details: TLK1; Lys2; 1 μM, 90 min; GF
Procedure: as §1

kinases in BCWM.1 cells [26] = target: kinases in BCWM.1 cells (Homo sapiens, UniProt P51957); details: NEK4; Lys2; 1 μM, 90 min; GF
Procedure: as §1

kinases in BCWM.1 cells [27] = target: kinases in BCWM.1 cells (Homo sapiens, UniProt Q8TD19); details: NEK9; Lys2; 1 μM, 90 min; GF
Procedure: as §1

kinases in BCWM.1 cells [28] = target: kinases in BCWM.1 cells (Homo sapiens, UniProt Q96PY6); details: NEK1; Lys2; 1 μM, 90 min; GF
Procedure: as §1

kinases in BCWM.1 cells [29] = target: kinases in BCWM.1 cells (Homo sapiens, UniProt Q15418); details: Lys2, 1 μM, 90 min, GF
Procedure: as §1

Chain of kinases in BCWM.1 cells (Homo sapiens, UniProt Q15208) (Q15208 2-465 limits assumed): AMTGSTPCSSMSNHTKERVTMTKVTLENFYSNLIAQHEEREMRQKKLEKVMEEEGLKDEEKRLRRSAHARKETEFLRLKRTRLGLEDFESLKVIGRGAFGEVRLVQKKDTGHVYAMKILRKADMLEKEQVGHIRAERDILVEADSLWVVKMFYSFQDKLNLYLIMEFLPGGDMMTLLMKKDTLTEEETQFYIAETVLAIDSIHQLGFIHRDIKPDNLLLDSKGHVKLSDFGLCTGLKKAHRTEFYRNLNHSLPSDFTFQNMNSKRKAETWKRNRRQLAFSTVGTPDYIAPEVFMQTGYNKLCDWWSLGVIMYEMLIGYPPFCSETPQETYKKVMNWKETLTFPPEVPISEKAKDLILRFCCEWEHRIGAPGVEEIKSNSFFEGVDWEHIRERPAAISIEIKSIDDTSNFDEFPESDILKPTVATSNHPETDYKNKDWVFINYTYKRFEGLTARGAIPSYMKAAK
Chain of kinases in BCWM.1 cells (Homo sapiens, UniProt P12931) (P12931 2-536 limits assumed): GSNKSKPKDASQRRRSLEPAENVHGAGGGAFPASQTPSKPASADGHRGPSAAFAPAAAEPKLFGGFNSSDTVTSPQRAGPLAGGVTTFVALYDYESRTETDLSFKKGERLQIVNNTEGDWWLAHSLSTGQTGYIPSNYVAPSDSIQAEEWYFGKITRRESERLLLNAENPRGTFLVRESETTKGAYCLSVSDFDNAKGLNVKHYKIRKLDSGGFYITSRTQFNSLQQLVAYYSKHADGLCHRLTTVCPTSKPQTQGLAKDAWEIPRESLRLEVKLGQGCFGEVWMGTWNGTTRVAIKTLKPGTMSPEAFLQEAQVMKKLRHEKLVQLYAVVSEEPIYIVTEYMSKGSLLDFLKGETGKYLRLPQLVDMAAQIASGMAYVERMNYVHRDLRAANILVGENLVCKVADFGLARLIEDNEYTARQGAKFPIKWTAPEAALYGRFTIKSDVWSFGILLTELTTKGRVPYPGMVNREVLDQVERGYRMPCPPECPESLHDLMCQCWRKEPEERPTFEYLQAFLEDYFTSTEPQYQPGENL
Chain of kinases in BCWM.1 cells (Homo sapiens, UniProt Q9NZJ5) (Q9NZJ5 30-1116 limits assumed): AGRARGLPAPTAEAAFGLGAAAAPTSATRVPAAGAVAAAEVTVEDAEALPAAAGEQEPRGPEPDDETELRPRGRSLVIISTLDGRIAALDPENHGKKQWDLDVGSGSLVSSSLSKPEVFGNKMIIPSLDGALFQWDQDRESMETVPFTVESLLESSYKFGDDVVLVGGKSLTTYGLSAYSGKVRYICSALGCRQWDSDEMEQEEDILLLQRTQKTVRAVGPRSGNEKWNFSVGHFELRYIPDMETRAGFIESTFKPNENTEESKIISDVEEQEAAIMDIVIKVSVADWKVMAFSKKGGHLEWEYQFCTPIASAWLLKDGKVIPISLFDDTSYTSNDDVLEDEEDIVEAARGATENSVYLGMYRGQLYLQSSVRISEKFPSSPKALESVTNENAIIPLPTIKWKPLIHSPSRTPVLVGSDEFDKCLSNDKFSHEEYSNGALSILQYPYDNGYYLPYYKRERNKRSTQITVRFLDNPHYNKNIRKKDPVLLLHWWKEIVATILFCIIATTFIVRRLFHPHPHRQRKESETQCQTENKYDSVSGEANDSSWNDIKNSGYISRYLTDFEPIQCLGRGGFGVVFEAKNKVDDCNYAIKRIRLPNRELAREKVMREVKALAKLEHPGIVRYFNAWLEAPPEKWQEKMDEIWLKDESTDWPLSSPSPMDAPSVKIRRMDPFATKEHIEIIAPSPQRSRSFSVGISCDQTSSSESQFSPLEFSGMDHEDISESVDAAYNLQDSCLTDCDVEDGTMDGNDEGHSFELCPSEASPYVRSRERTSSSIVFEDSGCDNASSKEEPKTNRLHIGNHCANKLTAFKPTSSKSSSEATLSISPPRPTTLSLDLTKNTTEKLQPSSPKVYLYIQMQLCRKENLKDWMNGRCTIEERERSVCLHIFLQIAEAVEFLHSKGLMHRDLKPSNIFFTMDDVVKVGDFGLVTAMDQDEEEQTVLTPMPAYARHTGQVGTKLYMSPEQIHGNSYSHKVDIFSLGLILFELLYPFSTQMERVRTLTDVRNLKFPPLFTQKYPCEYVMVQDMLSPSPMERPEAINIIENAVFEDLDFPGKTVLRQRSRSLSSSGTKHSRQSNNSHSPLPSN
Chain of kinases in BCWM.1 cells (Homo sapiens, UniProt Q13464) (Q13464 2-1354 limits assumed): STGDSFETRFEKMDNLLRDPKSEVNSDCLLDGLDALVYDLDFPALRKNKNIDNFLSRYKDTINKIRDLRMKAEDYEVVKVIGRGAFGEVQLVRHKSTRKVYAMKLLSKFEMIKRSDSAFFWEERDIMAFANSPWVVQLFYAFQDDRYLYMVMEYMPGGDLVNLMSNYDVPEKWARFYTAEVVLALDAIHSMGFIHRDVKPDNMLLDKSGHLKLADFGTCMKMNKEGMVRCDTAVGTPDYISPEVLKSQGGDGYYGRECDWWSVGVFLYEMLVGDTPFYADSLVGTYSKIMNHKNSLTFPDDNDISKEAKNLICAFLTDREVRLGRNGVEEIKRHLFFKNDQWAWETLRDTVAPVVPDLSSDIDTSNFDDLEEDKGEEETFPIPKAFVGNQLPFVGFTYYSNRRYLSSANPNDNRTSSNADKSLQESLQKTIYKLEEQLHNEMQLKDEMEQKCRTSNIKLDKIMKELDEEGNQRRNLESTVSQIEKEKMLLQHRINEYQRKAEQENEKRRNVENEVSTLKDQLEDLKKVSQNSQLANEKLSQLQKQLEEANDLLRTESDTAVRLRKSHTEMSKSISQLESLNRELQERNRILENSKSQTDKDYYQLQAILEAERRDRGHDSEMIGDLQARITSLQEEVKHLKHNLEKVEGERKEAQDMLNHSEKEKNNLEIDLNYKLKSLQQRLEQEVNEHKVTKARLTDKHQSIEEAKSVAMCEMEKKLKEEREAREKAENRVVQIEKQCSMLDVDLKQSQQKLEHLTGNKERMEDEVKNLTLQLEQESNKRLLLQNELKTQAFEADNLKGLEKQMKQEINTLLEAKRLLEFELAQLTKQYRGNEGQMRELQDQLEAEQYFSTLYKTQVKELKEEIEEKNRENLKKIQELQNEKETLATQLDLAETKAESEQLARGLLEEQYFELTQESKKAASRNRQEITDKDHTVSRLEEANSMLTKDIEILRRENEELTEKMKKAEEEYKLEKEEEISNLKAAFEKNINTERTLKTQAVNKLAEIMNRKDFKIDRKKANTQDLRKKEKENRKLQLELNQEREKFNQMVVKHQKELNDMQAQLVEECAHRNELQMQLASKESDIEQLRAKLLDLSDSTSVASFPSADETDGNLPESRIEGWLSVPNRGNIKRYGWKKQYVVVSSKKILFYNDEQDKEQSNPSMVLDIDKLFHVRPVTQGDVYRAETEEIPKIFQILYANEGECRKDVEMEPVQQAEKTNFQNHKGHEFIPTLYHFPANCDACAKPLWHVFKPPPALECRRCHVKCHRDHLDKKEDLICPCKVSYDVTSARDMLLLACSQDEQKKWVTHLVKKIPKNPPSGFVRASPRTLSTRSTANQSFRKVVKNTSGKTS
Chain of kinases in BCWM.1 cells (Homo sapiens, UniProt P53350) (P53350 2-603 limits assumed): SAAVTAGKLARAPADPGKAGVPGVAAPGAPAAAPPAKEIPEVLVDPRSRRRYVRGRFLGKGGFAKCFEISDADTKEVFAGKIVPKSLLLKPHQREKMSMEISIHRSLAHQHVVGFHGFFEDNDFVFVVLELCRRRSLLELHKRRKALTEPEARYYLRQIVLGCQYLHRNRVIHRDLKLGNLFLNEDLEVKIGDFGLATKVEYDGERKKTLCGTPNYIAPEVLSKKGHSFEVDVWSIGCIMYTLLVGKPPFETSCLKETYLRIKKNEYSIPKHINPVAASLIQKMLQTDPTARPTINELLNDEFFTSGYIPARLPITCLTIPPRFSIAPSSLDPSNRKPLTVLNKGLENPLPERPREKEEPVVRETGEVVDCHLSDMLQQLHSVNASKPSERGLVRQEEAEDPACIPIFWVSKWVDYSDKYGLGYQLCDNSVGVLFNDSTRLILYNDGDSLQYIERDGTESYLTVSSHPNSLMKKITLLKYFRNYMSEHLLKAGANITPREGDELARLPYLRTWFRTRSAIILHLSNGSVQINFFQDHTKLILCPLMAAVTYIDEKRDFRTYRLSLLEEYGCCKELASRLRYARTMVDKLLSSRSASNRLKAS
Chain of kinases in BCWM.1 cells (Homo sapiens, UniProt Q8TD19) (Q8TD19 2-979 limits assumed): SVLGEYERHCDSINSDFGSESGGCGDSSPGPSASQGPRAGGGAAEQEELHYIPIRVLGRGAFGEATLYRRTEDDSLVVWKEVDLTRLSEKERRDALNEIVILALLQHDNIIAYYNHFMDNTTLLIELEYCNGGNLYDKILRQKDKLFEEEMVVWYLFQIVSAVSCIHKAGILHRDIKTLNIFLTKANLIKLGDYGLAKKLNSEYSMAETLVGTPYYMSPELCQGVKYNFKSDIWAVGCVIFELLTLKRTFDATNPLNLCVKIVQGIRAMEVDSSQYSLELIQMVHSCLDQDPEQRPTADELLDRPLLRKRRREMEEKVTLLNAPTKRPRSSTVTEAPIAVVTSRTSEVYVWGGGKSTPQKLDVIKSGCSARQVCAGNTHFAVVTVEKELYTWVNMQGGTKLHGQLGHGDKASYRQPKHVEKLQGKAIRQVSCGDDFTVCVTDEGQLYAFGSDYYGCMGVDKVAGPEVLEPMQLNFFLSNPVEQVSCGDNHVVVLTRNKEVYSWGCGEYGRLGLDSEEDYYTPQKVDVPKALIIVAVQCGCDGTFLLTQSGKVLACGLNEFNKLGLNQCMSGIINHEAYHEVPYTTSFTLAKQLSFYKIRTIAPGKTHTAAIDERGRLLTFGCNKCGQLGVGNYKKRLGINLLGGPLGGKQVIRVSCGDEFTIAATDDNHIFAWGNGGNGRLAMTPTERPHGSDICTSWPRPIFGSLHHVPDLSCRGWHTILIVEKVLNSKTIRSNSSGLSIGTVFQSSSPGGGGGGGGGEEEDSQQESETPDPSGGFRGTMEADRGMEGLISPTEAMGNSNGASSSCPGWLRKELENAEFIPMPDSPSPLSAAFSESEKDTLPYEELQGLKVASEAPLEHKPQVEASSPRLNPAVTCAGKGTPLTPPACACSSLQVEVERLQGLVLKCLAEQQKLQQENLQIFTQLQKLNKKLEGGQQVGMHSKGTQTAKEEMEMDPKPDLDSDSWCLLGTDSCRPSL

| SMILES | % change of MS signal compared to control sample (kinases in BCWM.1 cells [1]) [%] | % change of MS signal compared to control sample (kinases in BCWM.1 cells [2]; RSK2 domain1) [%] | % change of MS signal compared to control sample (kinases in BCWM.1 cells [2]; RSK2 domain2) [%] | % change of MS signal compared to control sample (kinases in BCWM.1 cells [3]) [%] | % change of MS signal compared to control sample (kinases in BCWM.1 cells [4]) [%] | % change of MS signal compared to control sample (kinases in BCWM.1 cells [5]) [%] | % change of MS signal compared to control sample (kinases in BCWM.1 cells [6]) [%] | % change of MS signal compared to control sample (kinases in BCWM.1 cells [7]) [%] | % change of MS signal compared to control sample (kinases in BCWM.1 cells [8]) [%] | % change of MS signal compared to control sample (kinases in BCWM.1 cells [9]) [%] | % change of MS signal compared to control sample (kinases in BCWM.1 cells [10]) [%] | % change of MS signal compared to control sample (kinases in BCWM.1 cells [11]) [%] | % change of MS signal compared to control sample (kinases in BCWM.1 cells [12]) [%] | % change of MS signal compared to control sample (kinases in BCWM.1 cells [13]) [%] | % change of MS signal compared to control sample (kinases in BCWM.1 cells [14]) [%] | % change of MS signal compared to control sample (kinases in BCWM.1 cells [15]) [%] | % change of MS signal compared to control sample (kinases in BCWM.1 cells [16]) [%] | % change of MS signal compared to control sample (kinases in BCWM.1 cells [17]) [%] | % change of MS signal compared to control sample (kinases in BCWM.1 cells [18]) [%] | % change of MS signal compared to control sample (kinases in BCWM.1 cells [19]) [%] | further results |
| --- | --- | --- | --- | --- | --- | --- | --- | --- | --- | --- | --- | --- | --- | --- | --- | --- | --- | --- | --- | --- | --- |
| C=CC(=O)N1CC[C@H](Nc2nccc(Nc3ncc(C(=O)Nc4c(C)cccc4C)s3)n2)C1 [Example I-3] | 1.6 | −15.5 | −16.5 | −8.6 | −17.7 | 6.4 | 39.9 | −18.5 | −16.9 | −3.5 | −36.7 | −19 | −6.5 | −4.1 | 22 | 17.3 | −1.4 | 0.9 | −6.6 | 96.7 | % change of MS signal compared to control sample (kinases in BCWM.1 cells [20]): −23%; % change of MS signal compared to control sample (kinases in BCWM.1 cells [21]): −1.1%; % change of MS signal compared to control sample (kinases in BCWM.1 cells [22]): −16.8%; % change of MS signal compared to control sample (kinases in BCWM.1 cells [23]): −5.5%; % change of MS signal compared to control sample (kinases in BCWM.1 cells [24]): −4.6%; % change of MS signal compared to control sample (kinases in BCWM.1 cells [25]): −6.9%; % change of MS signal compared to control sample (kinases in BCWM.1 cells [26]): 7.3%; % change of MS signal compared to control sample (kinases in BCWM.1 cells [27]): −9.9%; % change of MS signal compared to control sample (kinases in BCWM.1 cells [28]): −7.6%; % change of MS signal compared to control sample (kinases in BCWM.1 cells [29]; RSK1 domain1): −16.9%; % change of MS signal compared to control sample (kinases in BCWM.1 cells [29]; RSK1 domain2): −20.8% |
| CCC(=O)N1CC[C@H](Nc2nccc(Nc3ncc(C(=O)Nc4c(C)cccc4C)s3)n2)C1 [Example I-9] | 4.3 | −8.4 | 1.6 | −0.6 | −9.4 | 15.4 | 18.5 | −1.1 | −2.1 | −6.6 | −1 | −4.1 | 8.6 | −3.1 | −27 | −1.2 | −4.2 | 4.3 | −3.1 | 86.1 | % change of MS signal compared to control sample (kinases in BCWM.1 cells [20]): 9.6%; % change of MS signal compared to control sample (kinases in BCWM.1 cells [21]): −6.1%; % change of MS signal compared to control sample (kinases in BCWM.1 cells [22]): −0.4%; % change of MS signal compared to control sample (kinases in BCWM.1 cells [23]): 2.8%; % change of MS signal compared to control sample (kinases in BCWM.1 cells [24]): −4.6%; % change of MS signal compared to control sample (kinases in BCWM.1 cells [25]): −2.3%; % change of MS signal compared to control sample (kinases in BCWM.1 cells [26]): −1.7%; % change of MS signal compared to control sample (kinases in BCWM.1 cells [27]): −12.6%; % change of MS signal compared to control sample (kinases in BCWM.1 cells [28]): 4.6%; % change of MS signal compared to control sample (kinases in BCWM.1 cells [29]; RSK1 domain1): −5.1%; % change of MS signal compared to control sample (kinases in BCWM.1 cells [29]; RSK1 domain2): −4.1% |
